Assay results from patent publication US5698411A, “Method for determining activity of enzymes in metabolically active whole cells” (priority 1995, dated 1997).

Legend:
Type in all cases: cell-based, human
granulocytes [1] = experiment: aberrant enzyme activities in febrile children, granulocytes (Table 7)
lymphocytes [2] = experiment: aberrant enzyme activities in febrile children, lymphocytes (Table 7)
monocytes = experiment: aberrant enzyme activities in febrile children, monocytes (Table 7)
lymphocytes [3] = experiment: enzyme activity with fluorogenic substrate, normal lymphocytes (Table 3A)
granulocytes [4] = experiment: enzyme activity with fluorogenic substrate, normal granulocytes (Table 3A)
[5] = test system: metabolically active whole cell; experiment: substrate panel in normals and HIV + patients, TB infection (Table 4); parameters: unit not given here
Experimental: A panel of assay compounds are assembled consisting of Ala-aminopeptidase and Lys-aminopeptidase, Dipeptidyl peptidase IV (Ala-Ala)2 rhodamine 110 and Cathepsin D to indicate possible TB infection in AIDS related cases.
A panel Of enzymatic substrates is performed consisting of Ala-aminopeptidase and Lys-aminopeptidase, Dipeptidyl peptidase IV (Ala-Ala)2 rhodamine 110 and Cathepsin D to indicate possible TB infection in AIDS related cases.

SMILES	aberrant enzyme activity, GRANS (granulocytes [1]; P88 Enteritis)	aberrant enzyme activity, GRANS (granulocytes [1]; P89 Viral Stomatitis)	aberrant enzyme activity, GRANS (granulocytes [1]; P92 Adenitis)	aberrant enzyme activity, GRANS (granulocytes [1]; P97 Pyelonephritis)	aberrant enzyme activity, GRANS (granulocytes [1]; P103 Viral Syndrome)	aberrant enzyme activity, LYMPHS (lymphocytes [2]; P88 Enteritis)	aberrant enzyme activity, LYMPHS (lymphocytes [2]; P89 Viral Stomatitis)	aberrant enzyme activity, LYMPHS (lymphocytes [2]; P92 Adenitis)	aberrant enzyme activity, LYMPHS (lymphocytes [2]; P97 Pyelonephritis)	aberrant enzyme activity, LYMPHS (lymphocytes [2]; P103 Viral Syndrome)	aberrant enzyme activity, MONOS (monocytes; P88 Enteritis)	aberrant enzyme activity, MONOS (monocytes; P89 Viral Stomatitis)	aberrant enzyme activity, MONOS (monocytes; P92 Adenitis)	aberrant enzyme activity, MONOS (monocytes; P97 Pyelonephritis)	aberrant enzyme activity, MONOS (monocytes; P103 Viral Syndrome)	NORMAL LEUKOCYTE ENZYME ACTIVITY LYMPHS Mean (lymphocytes [3])	aberrant enzyme activity, GRANS (granulocytes [1]; P95 Viral Syndrome)	aberrant enzyme activity, GRANS (granulocytes [1]; P96 Viral Syndrome)	aberrant enzyme activity, GRANS (granulocytes [1]; P99 Viral Syndrome)	aberrant enzyme activity, GRANS (granulocytes [1]; P102 UTI)	further results
O=C1OC2(c3ccc(OC4O[C@H](CO)[C@H](O)[C@H](O)[C@H]4O)cc3Oc3cc(OC4O[C@H](CO)[C@H](O)[C@H](O)[C@H]4O)ccc32)c2ccccc21 (stereo partly drawn) [GALAC, (D-galactose)2 fluorescein]	.smallcircle.	.smallcircle.	.smallcircle.	.smallcircle.	.smallcircle.	.smallcircle.	.smallcircle.	.smallcircle.	.smallcircle.	.smallcircle.	.smallcircle.	.smallcircle.	.smallcircle.	.smallcircle.	.smallcircle.	0.38	–	–	–	–	–
C[C@H](NC(=O)[C@@H](N)CCCCN)C(=O)Nc1ccc2c(c1)Oc1cc(NC(=O)[C@H](C)NC(=O)[C@@H](N)CCCCN)ccc1C21OC(=O)c2ccccc21 [KA-M, (Lys-Ala)2 Rho 110]	.smallcircle.	.smallcircle.	.smallcircle.	.smallcircle.	.smallcircle.	.smallcircle.	.smallcircle.	.smallcircle.	.smallcircle.	.smallcircle.	–	–	–	–	–	0.55	.smallcircle.	.smallcircle.	.smallcircle.	.smallcircle.	aberrant enzyme activity, LYMPHS (lymphocytes [2]; P95 Viral Syndrome): .smallcircle.; aberrant enzyme activity, LYMPHS (lymphocytes [2]; P96 Viral Syndrome): .smallcircle.; aberrant enzyme activity, LYMPHS (lymphocytes [2]; P99 Viral Syndrome, listed as Lys/Ala-M): + (>0.25 Increase over normal range); aberrant enzyme activity, LYMPHS (lymphocytes [2]; P102 UTI): .smallcircle.; aberrant enzyme activity, MONOS (monocytes; P88 Enteritis, listed as Lys/Ala-M): - (>0.25 Decrease over normal range); aberrant enzyme activity, MONOS (monocytes; P89 Viral Stomatitis, listed as Lys/Ala-M): - (>0.25 Decrease over normal range); aberrant enzyme activity, MONOS (monocytes; P92 Adenitis, listed as Lys/Ala-M): - (>0.25 Decrease over normal range); aberrant enzyme activity, MONOS (monocytes; P95 Viral Syndrome, listed as Lys/Ala-M): - (>0.25 Decrease over normal range); aberrant enzyme activity, MONOS (monocytes; P96 Viral Syndrome, listed as Lys/Ala-M): - (>0.25 Decrease over normal range); aberrant enzyme activity, MONOS (monocytes; P97 Pyelonephritis, listed as Lys/Ala-M): - (>0.25 Decrease over normal range); aberrant enzyme activity, MONOS (monocytes; P99 Viral Syndrome): .smallcircle.; aberrant enzyme activity, MONOS (monocytes; P102 UTI): .smallcircle.; aberrant enzyme activity, MONOS (monocytes; P103 Viral Syndrome, listed as Lys/Ala-M): - (>0.25 Decrease over normal range)
CC(C)[C@H](N)C(=O)N[C@@H](CCCCN)C(=O)Nc1ccc2c(c1)Oc1cc(NC(=O)[C@H](CCCCN)NC(=O)[C@@H](N)C(C)C)ccc1C21OC(=O)c2ccccc21 [VK, (Val-Lys)2 Rho 110]	- (>0.25 Decrease over normal range)	- (>0.25 Decrease over normal range)	.smallcircle.	+ (>0.25 Increase over normal range)	.smallcircle.	.smallcircle.	.smallcircle.	.smallcircle.	.smallcircle.	.smallcircle.	- (>0.25 Decrease over normal range)	- (>0.25 Decrease over normal range)	.smallcircle.	.smallcircle.	+ (>0.25 Increase over normal range)	1.87	- (>0.25 Decrease over normal range)	.smallcircle.	+ (>0.25 Increase over normal range)	.smallcircle.	aberrant enzyme activity, GRANS (granulocytes [1]; P101 Fever -- Unknown Origin): .smallcircle.; NORMAL LEUKOCYTE ENZYME ACTIVITY GRANS Mean (granulocytes [4]): 5.10; aberrant enzyme activity, LYMPHS (lymphocytes [2]; P95 Viral Syndrome): - (>0.25 Decrease over normal range); aberrant enzyme activity, LYMPHS (lymphocytes [2]; P96 Viral Syndrome): .smallcircle.; aberrant enzyme activity, LYMPHS (lymphocytes [2]; P99 Viral Syndrome): + (>0.25 Increase over normal range); aberrant enzyme activity, LYMPHS (lymphocytes [2]; P101 Fever -- Unknown Origin): .smallcircle.; aberrant enzyme activity, LYMPHS (lymphocytes [2]; P102 UTI): .smallcircle.; aberrant enzyme activity, MONOS (monocytes; P95 Viral Syndrome): .smallcircle.; aberrant enzyme activity, MONOS (monocytes; P96 Viral Syndrome): .smallcircle.; aberrant enzyme activity, MONOS (monocytes; P99 Viral Syndrome): + (>0.25 Increase over normal range); aberrant enzyme activity, MONOS (monocytes; P101 Fever -- Unknown Origin): .smallcircle.; aberrant enzyme activity, MONOS (monocytes; P102 UTI): - (>0.25 Decrease over normal range); MEAN DELTA FL ([5]; HIV + PATIENTS): 17.7; MEAN DELTA FL ([5]; NORMALS): 22.7
